pIC50: −log10 of the molar value. Read-outs that look alike come from different tables or passages of the source.
Molecular target: human TRPA1 channel (Homo sapiens (Human), UniProt O75762)
Test: hTRPA1 CHO Ca2+ FLIPR Tetra assay: block of cinnamaldehyde induced calcium influx
Assay type: cell-based
Settings: CHO cells expressing TRPA1, Hill coefficient fixed to 1.5
In short: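 TRPA1-expressing CHO cells loaded with calcium indicator dye (1 h 37° C, then 15 min room temperature) in HBSS/20 mM HEPES pH 7.4/0.02% BSA. IC50 from fits with fixed Hill coefficient.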

[1] = read-out: hTRPA1 IC50 10 min, 10 minutes incubation with compound before cinnamaldehyde (about EC80)
[2] = read-out: hTRPA1 IC50 90 min, 90 minutes incubation with compound before cinnamaldehyde (about EC80)

Sequence of human TRPA1 channel (O75762 whole entry): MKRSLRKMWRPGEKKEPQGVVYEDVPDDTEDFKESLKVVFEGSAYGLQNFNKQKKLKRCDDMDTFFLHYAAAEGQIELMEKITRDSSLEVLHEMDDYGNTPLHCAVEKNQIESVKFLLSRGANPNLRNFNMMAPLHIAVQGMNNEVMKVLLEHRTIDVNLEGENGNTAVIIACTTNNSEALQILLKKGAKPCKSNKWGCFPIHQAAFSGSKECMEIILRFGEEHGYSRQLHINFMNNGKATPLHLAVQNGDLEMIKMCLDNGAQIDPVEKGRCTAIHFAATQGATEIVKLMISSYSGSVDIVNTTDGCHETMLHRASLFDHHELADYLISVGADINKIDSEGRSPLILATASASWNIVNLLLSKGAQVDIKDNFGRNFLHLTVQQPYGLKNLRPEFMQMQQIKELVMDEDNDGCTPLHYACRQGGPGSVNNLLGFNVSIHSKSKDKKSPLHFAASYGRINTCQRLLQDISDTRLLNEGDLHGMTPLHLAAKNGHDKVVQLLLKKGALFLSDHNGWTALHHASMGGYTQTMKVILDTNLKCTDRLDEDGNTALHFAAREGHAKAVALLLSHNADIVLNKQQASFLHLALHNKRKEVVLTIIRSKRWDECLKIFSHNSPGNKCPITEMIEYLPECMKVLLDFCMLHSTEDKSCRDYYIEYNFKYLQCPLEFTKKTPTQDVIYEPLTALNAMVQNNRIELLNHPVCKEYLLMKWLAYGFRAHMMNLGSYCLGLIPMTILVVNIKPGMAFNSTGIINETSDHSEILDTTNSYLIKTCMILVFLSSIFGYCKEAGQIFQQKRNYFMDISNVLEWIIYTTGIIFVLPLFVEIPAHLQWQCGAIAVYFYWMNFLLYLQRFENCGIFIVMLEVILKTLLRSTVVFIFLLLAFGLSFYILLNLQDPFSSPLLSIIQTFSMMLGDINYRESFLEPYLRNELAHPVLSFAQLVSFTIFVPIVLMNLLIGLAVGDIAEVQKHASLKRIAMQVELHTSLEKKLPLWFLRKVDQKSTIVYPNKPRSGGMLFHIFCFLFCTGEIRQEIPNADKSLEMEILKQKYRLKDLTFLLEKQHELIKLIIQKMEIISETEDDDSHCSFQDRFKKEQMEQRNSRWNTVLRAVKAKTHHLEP

Row | Structure (SMILES) | pIC50 [1] | pIC50 [2] | pIC50 (hTRPA1 IC50 90 min, 90 minutes incubation with compound before cinnamaldehyde (about EC80))
1 | Cn1c(=O)ccc2ncn(Cc3nc([C@@H]4CO[C@@H](c5ccc(Cl)cc5)C4)no3)c(=O)c21 [Example 46, 3-((3-((3R,5R)-5-(4-chlorophenyl)tetra-hydrofuran-3-yl)-1,2,4-oxadiazol-5-yl)methyl)-5-methyl-3,5-dihydropyrido[3,2-d] pyrimidine-4,6-dione] | 7.84 | 7.85 | –
2 | Nc1ccc2c(=O)n(Cc3nc([C@@H]4CO[C@@H](c5ccc(Cl)cc5)C4)no3)ncc2n1 [Example 87, 2-amino-6-((3-((3R,5R)-5-(4-chlorophenyl)tetra-hydrofuran-3-yl)-1,2,4-oxadiazol-5-yl)methyl) pyrido[2,3-d]pyridazin-5(6H)-one] | 7.98 | 8.46 | –
3 | Cn1cnc2ncn(Cc3nc([C@@H]4CO[C@@H](c5ccc(Cl)cn5)C4)no3)c(=O)c21 [Example 41, 1-((3-((3R,5R)-5-(5-chloropyridin-2-yl)tetrahydrofuran-3-yl)-1,2,4-oxadiazol-5-yl)methyl)-7-methyl-1,7-dihydro-6H-purin-6-one] | 6.72 | 6.77 | –
4 | Cn1cnc2ncn(Cc3nc([C@@H]4CO[C@@H](c5cc(F)cc(F)c5)C4)no3)c(=O)c21 [Example 34, 1-((3-((3R,5R)-5-(3,5-difluorophenyl)tetra-hydrofuran-3-yl)-1,2,4-oxadiazol-5-yl)methyl)-7-methyl-1,7-dihydro-6H-purin-6-one] | 7.20 | 7.55 | –
5 | Cn1cnc2ccn(Cc3nc([C@@H]4CO[C@@H](c5ccc(F)cc5)C4)no3)c(=O)c21 [Example 56, 5-((3-((3R,5R)-5-(4-fluorophenyl)tetrahydro-furan-3-yl)-1,2,4-oxadiazol-5-yl)methyl)-3-methyl-3,5-dihydro-4H-imidazo[4,5-c]pyridin-4-one] | 8.17 | 8.72 | –
6 | O=c1c2cccnc2cnn1Cc1nc([C@@H]2CO[C@@H](c3ccc(Cl)cc3)C2)no1 [Example 24, 6-((3-((3R,5R)-5-(4-chlorophenyl)tetrahydro-furan-3-yl)-1,2,4-oxadiazol-5-yl)methyl)pyrido[2,3-d]pyridazin-5(6H)-one] | 8.14 | 8.31 | –
7 | Cc1nc(N2CCN(C)CC2)n2ncn(Cc3nc([C@@H]4CO[C@@H](c5ccc(Cl)cc5)C4)no3)c(=O)c12 (racemic) [Example 92, 5-methyl-7-(4-methylpiperazin-1-yl)-3-[[3-[rac-(3R,5R)-5-(4-chlorophenyl)tetrahydro-furan-3-yl]-1,2,4-oxadiazol-5-yl]methyl]imidazo[5,1-f][1,2,4]triazin-4-one] | – | – | 6.77
8 | Cc1ncn2nc(N)n(Cc3nc([C@@H]4CO[C@@H](c5ccc(Cl)cc5)C4)no3)c(=O)c12 [Example 84, 2-amino-3-((3-((3R,5R)-5-(4-chlorophenyl)tetra-hydrofuran-3-yl)-1,2,4-oxadiazol-5-yl)methyl)-5-methylimidazo[5,1-f] [1,2,4]triazin-4(3H)-one] | 6.85 | 8.34 | –
9 | Cn1c(C(F)F)nc2ncn(Cc3nc([C@@H]4CO[C@@H](c5ccc(Cl)cc5)C4)no3)c(=O)c21 [Example 76, 1-((3-((3R,5R)-5-(4-chlorophenyl)tetrahydro-furan-3-yl)-1,2,4-oxadiazol-5-yl)methyl)-8-(difluoro-methyl)-7-methyl-1,7-dihydro-6H-purin-6-one] | – | 7.96 | –
10 | Cn1ncc2ncn(Cc3nc([C@@H]4CO[C@@H](c5ccc(Cl)cc5)C4)no3)c(=O)c21 [Example 151, 6-((3-((3R,5R)-5-(4-chlorophenyl)tetrahydro-furan-3-yl)-1,2,4-oxadiazol-5-yl)methyl)-1-methyl-1,6-dihydro-7H-pyrazolo[4,3-d] pyrimidin-7-one] | 7.33 | 7.49 | –

The remaining compounds from weak to strong by pIC50 [2], led by results:

Row | pIC50 [1] | pIC50 [2] | pIC50 (hTRPA1 IC50 90 min, 90 minutes incubation with compound before cinnamaldehyde (about EC80)) | Structure (SMILES)
11 | 6.84 | 7.17 | – | Cc1cnc(N)n(Cc2nc([C@@H]3CO[C@@H](c4ccc(Cl)cc4)C3)no2)c1=O [Example 128, 2-amino-3-((3-((3R,5R)-5-(4-chlorophenyl)tetra-hydrofuran-3-yl)-1,2,4-oxadiazol-5-yl)methyl)-5-methylpyrimidin-4(3H)-one]
12 | 7.07 | 7.47 | – | Cc1nc2[nH]c(=O)n(C)c2c(=O)n1Cc1nc([C@@H]2CO[C@@H](c3ccc(Cl)cc3)C2)no1 [Example 111, 1-((3-((3R,5R)-5-(4-chlorophenyl)tetrahydro-furan-3-yl)-1,2,4-oxadiazol-5-yl)methyl)-2,7-dimethyl-7,9-dihydro-1H-purine-6,8-dione]
13 | 7.40 | 7.54 | – | Cn1c(NCc2ccccn2)nc2ncn(Cc3nc([C@@H]4CO[C@@H](c5ccc(Cl)cc5)C4)no3)c(=O)c21 [Example 51]
14 | 7.53 | 7.70 | – | Cn1cnc2nc(Cl)n(Cc3nc([C@@H]4CO[C@@H](c5ccc(Cl)cc5)C4)no3)c(=O)c21 [Example 120, 2-chloro-1-((3-((3R,5R)-5-(4-chlorophenyl)tetrahydro-furan-3-yl)-1,2,4-oxadiazol-5-yl)methyl)-7-methyl-1,7-dihydro-6H-purin-6-one]
15 | 7.79 | 8.44 | – | Cn1cnc2ncn(Cc3nc([C@@H]4CO[C@@H](c5ccc(F)c(Cl)c5)C4)no3)c(=O)c21 [Example 35, 1-((3-((3R,5R)-5-(3-chloro-4-fluorophenyl)tetrahydro-furan-3-yl)-1,2,4-oxadiazol-5-yl)methyl)-7-methyl-1,7-dihydro-6H-purin-6-one]
